{"source": "ChEMBL document CHEMBL1201862", "about": "“PubChem BioAssay data set” (2004)", "key": {"Beta-galactosidase": {"target": "Beta-galactosidase (Escherichia coli, UniProt Q8VNN2)", "sequence (Q8VNN2 whole entry)": "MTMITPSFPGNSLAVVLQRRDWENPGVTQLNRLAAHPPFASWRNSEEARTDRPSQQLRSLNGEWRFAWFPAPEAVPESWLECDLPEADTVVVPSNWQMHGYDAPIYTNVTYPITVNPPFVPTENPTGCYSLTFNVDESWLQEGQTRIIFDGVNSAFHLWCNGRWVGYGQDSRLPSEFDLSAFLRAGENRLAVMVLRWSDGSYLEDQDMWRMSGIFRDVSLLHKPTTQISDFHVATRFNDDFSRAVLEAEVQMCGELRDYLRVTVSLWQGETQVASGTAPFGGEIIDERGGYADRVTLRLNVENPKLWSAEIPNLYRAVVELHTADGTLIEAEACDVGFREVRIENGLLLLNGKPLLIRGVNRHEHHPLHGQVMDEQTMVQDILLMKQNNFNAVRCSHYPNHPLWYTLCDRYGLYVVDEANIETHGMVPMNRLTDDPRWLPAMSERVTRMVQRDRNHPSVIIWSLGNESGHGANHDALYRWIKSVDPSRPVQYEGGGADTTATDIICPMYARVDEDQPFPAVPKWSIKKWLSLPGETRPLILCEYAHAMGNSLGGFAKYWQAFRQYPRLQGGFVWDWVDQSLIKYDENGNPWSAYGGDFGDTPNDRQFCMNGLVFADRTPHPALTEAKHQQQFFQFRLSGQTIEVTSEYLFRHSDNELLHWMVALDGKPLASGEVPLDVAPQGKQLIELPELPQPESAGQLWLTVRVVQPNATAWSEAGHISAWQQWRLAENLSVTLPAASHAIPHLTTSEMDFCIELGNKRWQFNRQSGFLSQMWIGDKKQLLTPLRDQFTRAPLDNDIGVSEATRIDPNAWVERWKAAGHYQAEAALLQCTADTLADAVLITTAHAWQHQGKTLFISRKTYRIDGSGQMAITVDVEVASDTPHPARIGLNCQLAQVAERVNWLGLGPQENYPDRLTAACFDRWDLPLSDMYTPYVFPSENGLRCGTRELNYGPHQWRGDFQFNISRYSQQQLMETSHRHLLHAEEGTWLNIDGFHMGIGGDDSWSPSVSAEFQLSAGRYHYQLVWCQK", "assay": "Dose response counterscreen for EBI2 assay utilizing the enzyme, b-galactosidase.", "format": "functional"}, "[1]": {"target": "T1, Corticotropin-releasing factor receptor 2/Corticotropin-releasing factor-binding protein (Homo sapiens, UniProt P24387+Q13324)", "T1 sequence (Q13324 whole entry)": "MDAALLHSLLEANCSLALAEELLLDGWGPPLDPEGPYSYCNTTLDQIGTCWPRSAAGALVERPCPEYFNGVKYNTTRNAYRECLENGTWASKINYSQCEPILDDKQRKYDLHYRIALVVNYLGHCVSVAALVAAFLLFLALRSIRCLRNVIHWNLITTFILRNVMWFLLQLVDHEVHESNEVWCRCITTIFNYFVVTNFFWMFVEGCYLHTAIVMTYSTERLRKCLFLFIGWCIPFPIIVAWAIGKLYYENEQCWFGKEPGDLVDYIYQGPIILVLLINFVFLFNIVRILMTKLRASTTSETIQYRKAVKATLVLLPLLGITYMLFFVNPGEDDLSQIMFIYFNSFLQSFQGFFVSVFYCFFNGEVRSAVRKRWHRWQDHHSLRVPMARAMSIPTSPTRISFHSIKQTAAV", "T1 sequence (P24387 whole entry)": "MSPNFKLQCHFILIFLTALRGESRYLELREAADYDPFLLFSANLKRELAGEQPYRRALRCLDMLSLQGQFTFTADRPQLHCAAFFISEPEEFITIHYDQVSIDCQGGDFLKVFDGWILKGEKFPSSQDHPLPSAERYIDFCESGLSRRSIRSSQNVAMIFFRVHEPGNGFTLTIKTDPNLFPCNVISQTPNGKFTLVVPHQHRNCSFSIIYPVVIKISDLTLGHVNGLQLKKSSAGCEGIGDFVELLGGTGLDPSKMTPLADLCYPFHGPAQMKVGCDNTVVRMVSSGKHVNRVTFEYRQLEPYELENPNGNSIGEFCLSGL", "assay": "activators of CRF receptor 2 with binding protein – uHTS hits, confirmation (AID 602473)", "format": "functional", "settings": "read-out: EC50_Mean"}, "[2]": {"target": "T2, Heat shock factor protein 1 (Mus musculus, UniProt P38532)", "T2 sequence (P38532 whole entry)": "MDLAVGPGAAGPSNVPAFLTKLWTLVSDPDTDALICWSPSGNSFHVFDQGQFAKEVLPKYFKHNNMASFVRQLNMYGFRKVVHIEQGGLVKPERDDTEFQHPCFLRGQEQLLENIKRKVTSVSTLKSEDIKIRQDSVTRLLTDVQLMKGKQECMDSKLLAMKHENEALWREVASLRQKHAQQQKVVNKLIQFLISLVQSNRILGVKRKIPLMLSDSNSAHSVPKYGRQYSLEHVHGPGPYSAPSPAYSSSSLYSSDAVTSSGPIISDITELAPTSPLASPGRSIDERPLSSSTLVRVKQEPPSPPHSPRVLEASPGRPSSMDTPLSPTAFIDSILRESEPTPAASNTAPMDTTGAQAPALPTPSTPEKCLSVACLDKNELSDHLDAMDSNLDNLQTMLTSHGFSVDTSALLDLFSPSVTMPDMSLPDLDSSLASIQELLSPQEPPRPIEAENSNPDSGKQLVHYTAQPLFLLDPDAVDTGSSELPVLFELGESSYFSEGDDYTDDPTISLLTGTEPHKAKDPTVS", "assay": "enhancement of HSF1-driven luciferase signal – cell-based, NIH3T3, luminescence, dose retest, confirmation (AID 435004);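 further: stress induced by proteasome inhibitor MG132 added 30 min after compound; actives raise luminescence as potentiators of the MG132 stress response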", "format": "functional"}, "[3]": {"assay": "T. cruzi growth inhibition in host cells, dose response, cell-based, plate reader, dry powder, set 2 (AID 652275)", "format": "functional"}, "[4]": {"target": "Long-chain-fatty-acid--AMP ligase FadD28 (Mycobacterium tuberculosis, UniProt P9WQ59)", "sequence (P9WQ59 whole entry)": "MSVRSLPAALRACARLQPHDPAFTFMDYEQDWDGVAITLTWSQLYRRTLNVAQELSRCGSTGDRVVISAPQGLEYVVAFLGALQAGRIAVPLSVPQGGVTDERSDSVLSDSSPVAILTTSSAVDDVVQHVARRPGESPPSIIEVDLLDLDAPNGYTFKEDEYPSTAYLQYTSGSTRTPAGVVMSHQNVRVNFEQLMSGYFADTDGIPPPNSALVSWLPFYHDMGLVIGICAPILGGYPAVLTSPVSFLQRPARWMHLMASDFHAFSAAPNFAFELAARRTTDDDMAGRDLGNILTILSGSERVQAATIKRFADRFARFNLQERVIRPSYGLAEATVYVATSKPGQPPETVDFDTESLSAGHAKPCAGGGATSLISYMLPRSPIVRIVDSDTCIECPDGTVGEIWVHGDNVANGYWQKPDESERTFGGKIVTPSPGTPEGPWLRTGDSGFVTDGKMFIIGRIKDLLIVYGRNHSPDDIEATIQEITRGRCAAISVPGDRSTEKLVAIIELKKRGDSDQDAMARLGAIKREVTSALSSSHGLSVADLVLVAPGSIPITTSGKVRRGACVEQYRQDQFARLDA", "assay": "Fluorescence polarization aasay to screen for inhibitors that compete for the binding of FadD28 to a bisubstrate Measured in Biochemical System Using Plate Reader - 2147-01_Inhibitor_Dose_CherryPick_Activity.", "format": "functional, Mycobacterium tuberculosis H37Rv"}, "Protein S100-A4": {"target": "Protein S100-A4 (Homo sapiens, UniProt P26447)", "sequence (P26447 whole entry)": "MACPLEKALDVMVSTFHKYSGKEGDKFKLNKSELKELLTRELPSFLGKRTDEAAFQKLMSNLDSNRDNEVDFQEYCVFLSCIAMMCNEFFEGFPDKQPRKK", "assay": "human S100A4 peptide interaction inhibition curves – biochemical, fluorescence polarization, cherry-picked hits, dose response (AID 687001)", "format": "functional"}, "H9c2": {"system": "H9c2", "assay": "cells", "format": "functional, cell-based", "settings": "Rattus norvegicus, H9c2, Myocardium"}, "[5]": {"target": "Arf-GAP with SH3 domain, ANK repeat and PH domain-containing protein 1 (Homo sapiens, UniProt Q9ULH1)", "sequence (Q9ULH1 whole entry, the tested form may be a part)": "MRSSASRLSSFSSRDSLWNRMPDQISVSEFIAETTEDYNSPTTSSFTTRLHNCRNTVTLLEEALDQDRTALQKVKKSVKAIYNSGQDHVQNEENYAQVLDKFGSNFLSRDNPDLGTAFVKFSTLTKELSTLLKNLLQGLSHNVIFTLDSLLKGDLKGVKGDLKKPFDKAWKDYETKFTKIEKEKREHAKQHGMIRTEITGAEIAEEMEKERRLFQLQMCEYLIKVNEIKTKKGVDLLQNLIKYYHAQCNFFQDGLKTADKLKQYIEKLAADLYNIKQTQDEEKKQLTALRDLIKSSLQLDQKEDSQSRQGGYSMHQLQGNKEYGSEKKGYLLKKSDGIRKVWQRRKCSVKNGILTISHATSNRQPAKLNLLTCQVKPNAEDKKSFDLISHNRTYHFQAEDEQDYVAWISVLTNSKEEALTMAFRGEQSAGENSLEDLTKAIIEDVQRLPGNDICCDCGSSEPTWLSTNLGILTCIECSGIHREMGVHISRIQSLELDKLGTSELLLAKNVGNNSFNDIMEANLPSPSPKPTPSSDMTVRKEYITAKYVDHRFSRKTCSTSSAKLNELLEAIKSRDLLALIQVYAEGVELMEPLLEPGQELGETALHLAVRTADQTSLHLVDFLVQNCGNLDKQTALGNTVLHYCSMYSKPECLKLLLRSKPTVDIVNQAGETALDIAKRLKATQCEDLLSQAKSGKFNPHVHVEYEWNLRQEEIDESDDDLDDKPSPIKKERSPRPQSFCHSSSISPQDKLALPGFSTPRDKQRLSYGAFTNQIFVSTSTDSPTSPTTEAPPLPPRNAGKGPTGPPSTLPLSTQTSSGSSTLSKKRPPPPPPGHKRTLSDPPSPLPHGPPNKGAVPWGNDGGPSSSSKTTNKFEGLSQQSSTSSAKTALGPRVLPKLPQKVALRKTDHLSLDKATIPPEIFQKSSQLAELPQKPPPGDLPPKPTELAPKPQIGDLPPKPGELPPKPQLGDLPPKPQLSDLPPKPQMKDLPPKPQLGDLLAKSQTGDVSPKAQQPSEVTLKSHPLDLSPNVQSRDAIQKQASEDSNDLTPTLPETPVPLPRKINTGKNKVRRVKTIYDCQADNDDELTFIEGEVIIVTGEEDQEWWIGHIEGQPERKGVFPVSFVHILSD", "format": "functional"}, "[6]": {"target": "Induced myeloid leukemia cell differentiation protein Mcl-1 (Homo sapiens, UniProt Q07820)", "sequence (Q07820 whole entry)": "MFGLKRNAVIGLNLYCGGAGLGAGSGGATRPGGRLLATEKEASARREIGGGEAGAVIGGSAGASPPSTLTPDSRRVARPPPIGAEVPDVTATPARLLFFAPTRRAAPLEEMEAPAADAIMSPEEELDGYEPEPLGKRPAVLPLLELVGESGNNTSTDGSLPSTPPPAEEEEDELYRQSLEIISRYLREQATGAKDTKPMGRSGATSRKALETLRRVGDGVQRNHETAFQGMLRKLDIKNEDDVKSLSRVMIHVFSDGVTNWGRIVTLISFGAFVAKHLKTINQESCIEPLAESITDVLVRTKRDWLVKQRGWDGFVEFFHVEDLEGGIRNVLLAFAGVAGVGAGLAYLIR", "format": "functional"}, "[7]": {"target": "Histone-lysine N-methyltransferase NSD2 (Homo sapiens, UniProt O96028)", "sequence (O96028 whole entry)": "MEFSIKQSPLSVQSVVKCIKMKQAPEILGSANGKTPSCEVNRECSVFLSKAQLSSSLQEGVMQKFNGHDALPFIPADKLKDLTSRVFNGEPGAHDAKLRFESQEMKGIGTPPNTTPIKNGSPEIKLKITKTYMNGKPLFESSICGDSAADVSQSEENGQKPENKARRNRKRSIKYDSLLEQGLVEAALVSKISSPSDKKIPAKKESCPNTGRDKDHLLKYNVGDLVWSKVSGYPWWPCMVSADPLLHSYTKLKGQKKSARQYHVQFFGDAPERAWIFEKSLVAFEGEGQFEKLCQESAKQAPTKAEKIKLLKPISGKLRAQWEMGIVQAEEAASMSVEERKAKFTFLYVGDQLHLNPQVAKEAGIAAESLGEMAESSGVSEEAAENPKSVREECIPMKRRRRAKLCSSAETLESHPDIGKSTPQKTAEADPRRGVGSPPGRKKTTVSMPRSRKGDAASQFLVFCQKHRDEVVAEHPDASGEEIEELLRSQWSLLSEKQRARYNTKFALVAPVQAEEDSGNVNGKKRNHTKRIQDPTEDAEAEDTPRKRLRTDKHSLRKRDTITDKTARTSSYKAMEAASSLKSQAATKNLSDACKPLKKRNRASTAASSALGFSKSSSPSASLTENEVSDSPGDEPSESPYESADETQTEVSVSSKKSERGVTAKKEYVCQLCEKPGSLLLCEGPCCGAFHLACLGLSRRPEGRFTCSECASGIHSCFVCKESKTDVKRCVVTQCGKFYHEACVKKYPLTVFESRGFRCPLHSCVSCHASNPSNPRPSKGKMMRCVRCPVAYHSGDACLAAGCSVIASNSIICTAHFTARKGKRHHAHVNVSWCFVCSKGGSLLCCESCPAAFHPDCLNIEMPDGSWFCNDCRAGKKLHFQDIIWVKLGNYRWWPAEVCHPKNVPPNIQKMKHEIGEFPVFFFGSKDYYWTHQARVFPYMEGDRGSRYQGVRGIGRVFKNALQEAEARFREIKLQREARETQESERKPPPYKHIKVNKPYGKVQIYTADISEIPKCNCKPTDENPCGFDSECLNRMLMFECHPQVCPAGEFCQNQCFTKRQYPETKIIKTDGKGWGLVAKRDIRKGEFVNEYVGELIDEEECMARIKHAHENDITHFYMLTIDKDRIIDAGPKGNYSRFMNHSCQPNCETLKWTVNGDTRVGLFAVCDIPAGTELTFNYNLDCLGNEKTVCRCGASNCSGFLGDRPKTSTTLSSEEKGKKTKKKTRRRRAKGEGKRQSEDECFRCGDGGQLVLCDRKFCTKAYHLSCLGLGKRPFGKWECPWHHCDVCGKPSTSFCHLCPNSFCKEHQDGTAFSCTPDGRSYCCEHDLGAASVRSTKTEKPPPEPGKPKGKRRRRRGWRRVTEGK", "format": "biochemical"}, "Protein RecA": {"target": "T3, Protein RecA (Mycobacterium tuberculosis, UniProt P9WHJ3)", "T3 sequence (P9WHJ3 whole entry)": "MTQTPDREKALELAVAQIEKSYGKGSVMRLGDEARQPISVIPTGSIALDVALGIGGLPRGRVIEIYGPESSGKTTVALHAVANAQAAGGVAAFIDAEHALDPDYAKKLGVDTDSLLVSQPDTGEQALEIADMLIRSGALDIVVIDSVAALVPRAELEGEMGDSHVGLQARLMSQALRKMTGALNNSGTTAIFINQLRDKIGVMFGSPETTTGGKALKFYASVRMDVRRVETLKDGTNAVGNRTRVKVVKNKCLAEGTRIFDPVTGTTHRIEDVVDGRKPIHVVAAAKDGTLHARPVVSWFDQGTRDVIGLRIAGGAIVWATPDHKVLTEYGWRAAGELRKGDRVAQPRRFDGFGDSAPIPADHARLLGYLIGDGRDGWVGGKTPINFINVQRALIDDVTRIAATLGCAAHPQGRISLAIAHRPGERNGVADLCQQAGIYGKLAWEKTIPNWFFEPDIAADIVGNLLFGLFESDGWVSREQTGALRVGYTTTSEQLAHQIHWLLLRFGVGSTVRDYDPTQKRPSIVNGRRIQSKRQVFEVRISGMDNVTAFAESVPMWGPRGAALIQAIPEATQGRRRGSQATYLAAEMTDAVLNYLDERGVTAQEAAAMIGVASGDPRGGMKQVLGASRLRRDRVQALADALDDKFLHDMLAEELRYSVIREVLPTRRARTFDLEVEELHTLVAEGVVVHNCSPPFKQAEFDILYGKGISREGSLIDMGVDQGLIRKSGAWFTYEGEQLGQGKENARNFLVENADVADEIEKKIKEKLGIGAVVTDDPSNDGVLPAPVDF", "assay": "Fluorescence Cell-Free Homogeneous Dose Retest to Identify Inhibitors of RecA-Intein Splicing Activity. [Related pubchem assays (depositor defined):AID2097, AID2223, AID489010, AID492950]", "format": "functional"}, "[8]": {"target": "Fructose-bisphosphate aldolase (Mycobacterium tuberculosis, UniProt P9WQA3)", "sequence (P9WQA3 whole entry)": "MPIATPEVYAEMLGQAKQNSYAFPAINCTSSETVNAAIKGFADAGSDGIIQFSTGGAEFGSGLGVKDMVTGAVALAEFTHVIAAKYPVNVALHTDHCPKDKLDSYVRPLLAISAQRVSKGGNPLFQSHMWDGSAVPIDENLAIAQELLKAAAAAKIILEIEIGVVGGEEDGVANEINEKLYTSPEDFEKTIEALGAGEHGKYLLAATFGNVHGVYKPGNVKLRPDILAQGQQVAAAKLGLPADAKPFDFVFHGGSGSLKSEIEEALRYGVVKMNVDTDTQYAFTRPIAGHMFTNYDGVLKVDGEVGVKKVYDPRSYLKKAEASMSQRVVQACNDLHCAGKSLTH", "assay": "Fluorescence-based biochemical high throughput dose response assay for inhibitors of the fructose-bisphosphate aldolase (FBA) of M. tuberculosis.", "format": "functional"}}, "note": "Calls of active or inactive are those of the source."}
{"molecule": "CC1(C)CC(=O)C(=CNc2cc(C(=O)c3ccccc3)ccc2/N=C/C2=C(O)CC(C)(C)CC2=O)C(=O)C1", "values": [{"measurement": "IC50", "setting": "Beta-galactosidase", "result": "7.97 µM (active)"}, {"measurement": "EC50", "setting": "[1]", "result": "> 53 µM (inactive)"}, {"measurement": "EC50", "setting": "[2]", "result": "56.1 µM (active)"}]}
{"molecule": "CC(C)N1CC2(CN(CC3CCCCC3)C2)Oc2c(NC(=O)c3ccncc3)cccc2C1=O", "values": [{"measurement": "AC50", "setting": "[3]", "result": "1.18 µM (active)"}]}
{"molecule": "Cc1ccc(CSCCNC(=O)c2ccc(N(C)S(=O)(=O)c3ccccc3)cc2)cc1", "values": [{"measurement": "AC50", "setting": "[4]", "result": "7.13 µM (active)"}]}
{"molecule": "O=C1C=C(N2CCOCC2)c2cccc3cccc1c23", "values": [{"measurement": "AC50", "setting": "Protein S100-A4", "result": "4.83 µM (active)"}, {"measurement": "IC50", "setting": "H9c2", "result": "18.2 µM (active)"}]}
{"molecule": "COc1cc(/C=C2/SC(N)=NC2=O)ccc1Oc1ccc([N+](=O)[O-])cc1[N+](=O)[O-]", "values": [{"measurement": "IC50", "setting": "[5]", "result": "54.9 µM (inactive)"}]}
{"molecule": "CCOC(=O)C1CCN(c2nc(N)c3c(N)nc(SCC(=O)O)cc3c2C#N)CC1", "values": [{"measurement": "IC50", "setting": "[6]", "result": "4.87 µM (active)"}, {"measurement": "AC50", "setting": "[7]", "result": "6.04 µM (active)"}, {"measurement": "EC50", "setting": "Protein RecA", "result": "> 380 µM (inactive)"}]}
{"molecule": "N#Cc1c(-c2ccco2)cc(C2CC2)nc1N", "values": [{"measurement": "IC50", "setting": "[8]", "result": "1.43 µM (active)"}]}
